Source: the supplement of paper PMC10307832

How the values were obtained:
Experiment in all cases: relative viability (nuclei count vs DMSO), 5 days (fraction); higher = more cells survive
[1] = compound: C[As](C)SC[C@H](NC(=O)CC[C@H](N)C(=O)O)C(=O)NCC(=O)O [Darinaparsin] + Nc1nc2[nH]cc(CCc3ccc(C(=O)N[C@@H](CCC(=O)O)C(=O)O)cc3)c2c(=O)[nH]1 [Pemetrexed] (partner 0.2 µM)
Summary of the method: (§1)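 Each reported value is a median over duplicate plates. It expresses relative viability: treated-well nuclei count divided by vehicle-well nuclei count. Lung cancer cell lines in 1536-well plates were dosed by pin tool a day after seeding, alone with one drug or with a fixed anchor-drug dose plus five library-drug doses (not always all listed) in √10 steps, and nuclei were counted after 5 days.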

QS11 + Bortezomib = compound: C1CC2=C(C1)C=C(C=C2)OC3=NC(=C4C(=N3)N(C=N4)CC5=CC=C(C=C5)C6=CC=CC=C6)N[C@@H](CC7=CC=CC=C7)CO [QS11] + CC(C)C[C@H](NC(=O)[C@H](Cc1ccccc1)NC(=O)c1cnccn1)B(O)O [Bortezomib] (partner 0.002 µM)
Summary of the method: as §1

QS11 + Linsitinib = compound: C1CC2=C(C1)C=C(C=C2)OC3=NC(=C4C(=N3)N(C=N4)CC5=CC=C(C=C5)C6=CC=CC=C6)N[C@@H](CC7=CC=CC=C7)CO [QS11] + C[C@]1(O)C[C@@H](c2nc(-c3ccc4ccc(-c5ccccc5)nc4c3)c3c(N)nccn32)C1 [Linsitinib] (partner 1 µM)
Summary of the method: as §1

AZ628 + Palbociclib = compound: CC1=C(C=C(C=C1)NC(=O)C2=CC(=CC=C2)C(C)(C)C#N)NC3=CC4=C(C=C3)N=CN(C4=O)C [AZ628] + CC(=O)c1c(C)c2cnc(Nc3ccc(N4CCNCC4)cn3)nc2n(C2CCCC2)c1=O [Palbociclib] (partner 0.5 µM)
Summary of the method: as §1

Cell Line	relative viability ([1]; first compound 0.08 µM)	relative viability ([1]; first compound 0.8 µM)	relative viability ([1]; first compound 2.53 µM)	relative viability ([1]; first compound 8 µM)	relative viability (QS11 + Bortezomib; first compound 0.08 µM)	relative viability (QS11 + Bortezomib; first compound 0.253 µM)	relative viability (QS11 + Bortezomib; first compound 0.8 µM)	relative viability (QS11 + Bortezomib; first compound 2.53 µM)	relative viability (QS11 + Bortezomib; first compound 8 µM)	relative viability (QS11 + Linsitinib; first compound 0.08 µM)	relative viability (QS11 + Linsitinib; first compound 0.253 µM)	relative viability (QS11 + Linsitinib; first compound 0.8 µM)	relative viability (QS11 + Linsitinib; first compound 2.53 µM)	relative viability (QS11 + Linsitinib; first compound 8 µM)	relative viability (AZ628 + Palbociclib; first compound 0.08 µM)	relative viability (AZ628 + Palbociclib; first compound 0.253 µM)	relative viability (AZ628 + Palbociclib; first compound 0.8 µM)	relative viability (AZ628 + Palbociclib; first compound 2.53 µM)	relative viability (AZ628 + Palbociclib; first compound 8 µM)
201T	0.374	0.33	0.33	0.363	1.12	1.09	0.921	1.16	0.961	1.01	1.01	0.847	1.01	0.888	0.368	0.358	0.381	0.39	0.366
A549	–	–	–	–	–	–	–	–	–	0.506	0.558	0.507	0.475	0.885	–	–	–	–	–
A-427	1.06	0.934	1.1	1.02	0.852	0.96	–	0.999	0.858	1.12	1.1	–	1.14	1.09	0.475	0.446	0.497	0.475	0.427
ABC-1	–	–	–	–	0.309	0.399	0.319	0.324	0.278	0.955	0.646	0.88	0.801	0.929	0.795	0.586	0.5	0.884	0.712
BEN	0.873	0.848	0.818	0.859	0.635	1.01	1.07	0.916	1.07	0.851	1.17	1.07	0.79	1.12	0.487	0.489	0.46	0.51	0.452
CAL-12T	1.65	1.08	1.17	1.38	0.893	0.865	0.809	1.07	1.03	1.01	0.693	0.695	0.688	0.7	0.473	0.304	0.209	0.232	0.161
COR-L23	0.198	0.209	0.18	0.2	1.08	1.13	0.86	0.942	0.765	0.938	1.01	0.767	0.784	0.625	0.327	0.293	0.257	0.268	0.187
COR-L 105	1.39	1.21	0.913	1.27	0.78	0.814	0.772	0.717	0.519	0.964	0.706	0.929	0.732	0.883	0.368	0.368	0.429	0.344	0.453
Calu-6	–	–	–	–	1.12	1.07	0.953	1.06	0.817	0.971	0.936	0.762	0.921	1.21	–	–	–	–	–
ChaGo-K-1	0.251	0.266	0.271	0.263	–	1.01	1.17	1.25	1.09	–	–	–	–	–	0.993	0.934	0.892	0.986	1.02
